Source: patent US10767179B2, “MicroRNA composition for the treatment of neuroblastoma” (THE BOARD OF REGENTS OF THE UNIVERSITY OF TEXAS SYSTEM, priority 2014, dated 2020)

Columns and labels:
BE(2)-C cells [1] = assay: Cell Viability Assay (CellTiter-Glo); type: cell-based; details: transfected with mimic for 4 days
Experimental: Cell Viability Assay. Cells were plated in 96-well format and treated as specified. After culturing for 120 h, cell viability was determined using the CellTiter-Glo Luminescent Cell Viability Assay (Promega).

BE(2)-C cells [2] = assay: Colony Formation Assay; type: cell-based; details: 25 nM mimic, 14 days
Experimental: Colony Formation Assay. Cells were transfected as specified and cultured overnight. 500 cells were re-plated in 10 cm dishes. After 14 days, colonies were visualized by staining with 1% crystal violet. Colony numbers and sizes were analyzed using Image J (NIH, Bethesda, Md.).

differentiation markers = assay: Western blots of differentiation markers in multiple neuroblastoma cell lines; type: cell-based; details: miRNA mimic
Experimental: FIG. 3A-3G. Characterization of the effect of the top 5 neurite-inducing miRNA mimics on cell differentiation and growth in multiple neuroblastoma cell lines. (A-B) Effects of the identified top 5 miRNA mimics on neurite outgrowth. BE(2)-C cells were transfected with 25 nM miRNA mimics or control for 4 days, and relative neurite lengths were quantified as above. Shown are representative cell images analyzed to define neurite and cell body areas (A) and neurite length quantifications (B). (C) Effects of the 5 miRNA mimics on expression of differentiation markers. BE(2)-C cells were transfected with 25 nM of the indicated miRNA mimics or control, and proteins levels were examined after 4 days. (D) Effects of the 5 miRNA mimics on cell proliferation rate. (E) Effect of the 5 miRNAs on neurite outgrowth in multiple cell lines. Cells were transfected with 25 nM miRNA mimics or control, and neurite lengths were quantified as above after 5 days. (F-G) Effects of miR-506-3p (F) and miR-124-3p (G) mimics on expression of differentiation markers in multiple cell lines. *, p<0.05; **, p<0.01; ***, p<0.001; **** , p<0.0001.
(§1) Western Blots. […] Protein concentration was determined using the Pierce BCA assay (Thermo Fisher Scientific). […] Bound antibodies were detected with secondary antibodies conjugated with horseradish peroxidase (HRP) visualized by enhanced chemiluminescent (ECL) substrate (Pierce).

STAT3 [3] = assay: Western blot of endogenous STAT3 protein; type: cell-based; details: miRNA overexpression, 4 days
Source text: FIG. 7A-7F. Validation of CDK4 and STAT3 as direct targets that mediate the differentiation-inducing function of miR-506-3p and miR-124-3p. (A) The predicted interactions between miR-506-3p/miR-124-3p and the target sites in the 3′UTR of STAT3 and CDK4 rnRNAs. The seed sequences are underlined. (SEQ ID NOS: 1, 2, 18, 19, 20, 21) (B-C) Validation of the target sites of miR-506-3p and miR-124-3p in the 3′UTRs of (B) CDK4 and (C) STAT3 by luciferase reporter assay. BE(2)-C cells were co-transfected with the indicated vectors and miRNA mimics or control oligo. After 72 h of transfection, cells were lysed and luciferase activity was measured. […] Cells were transfected as above for 4 days, and protein levels were measured by Western blots. […] Cells were transfected with the indicated oligos, and neurite lengths were measured as above after 4 days transfection. Shown are representative cell images analyzed to define neurites and cell body areas (G) and quantification of neurite length under the indicated treatment conditions (H). **, p<0.01; *** , p<0.001; ****, p<0.0001.
as §1

3′UTR of STAT3 = assay: Luciferase Reporter Assay, STAT3 3'UTR; type: cell-based, human; details: BE(2)-C cells, 25 nM mimic, 72 h
Source text: Luciferase Reporter Assay. The segments of the wildtype 3′ UTRs for CDK4 and STAT3 containing the predicted target sites of miR-506-3p and miR-124-3p were cloned from human genomic DNA. Mutant constructs were generated with the seed target site (GUGCCUU (SEQ ID NO:4)) replaced by CACGGUU (SEQ ID NO:5). The 3′ UTRs were cloned downstream of the firefly luciferase coding sequences into the pmirGLO dual-luciferase reporter (Promega), a vector containing both firefly and Renilla luciferase cDNAs under the control of separate promoter/terminator systems. The firefly luciferase was used as the primary reporter for miRNA regulation of the 3′ UTR. The Renilla luciferase is an internal control for normalization. BE(2)-C cells were co-transfected with luciferase reporters (0.8 ng/μl) and miRNA mimics or control oligonucleotide (oligo) (25 nM). Luciferase activities were measured after 72 h using the Dual-Glo Luciferase Assay System (Promega). Firefly luciferase activity was normalized to Renilla luciferase activity to evaluate the effect of the miRNAs.

BE(2)-C cells [4] = assay: Endogenous miRNA expression by qRT-PCR in differentiated cells; type: cell-based; details: differentiated BE(2)-C cells
Experimental: (§2) Mrna And Mirna Expression. Total RNA was isolated as previously described (Du et al., Mol Cancer Res, 2009, 7(8):1234-43). mRNA expression profiling was done using the Illumina mRNA WG-6 v3 microarray platform. miRNA expression was measured by qRT-PCR using TaqMan microRNA Assays (Life Technologies) with average expression of RNU44 RNA, RNU19 RNA, GAPDH mRNA and 18s rRNA used as controls for normalizing RNA loading.

AHR = assay: mRNA expression profiling (Illumina microarray); type: cell-based; details: change of expression induced by miRNA overexpression
Experimental: as §2

BDNF = assay: mRNA expression profiling (Illumina microarray); type: cell-based; details: change of expression induced by miRNA overexpression
Experimental: as §2

CDK4 = assay: mRNA expression profiling (Illumina microarray); type: cell-based; details: change of expression induced by miRNA overexpression
Experimental: as §2

CEBPA = assay: mRNA expression profiling (Illumina microarray); type: cell-based; details: change of expression induced by miRNA overexpression
Experimental: as §2

PML = assay: mRNA expression profiling (Illumina microarray); type: cell-based; details: change of expression induced by miRNA overexpression
Experimental: as §2

RARG = assay: mRNA expression profiling (Illumina microarray); type: cell-based; details: change of expression induced by miRNA overexpression
Experimental: as §2

RHOQ = assay: mRNA expression profiling (Illumina microarray); type: cell-based; details: change of expression induced by miRNA overexpression
Experimental: as §2

SHC3 = assay: mRNA expression profiling (Illumina microarray); type: cell-based; details: change of expression induced by miRNA overexpression
Experimental: as §2

STAT3 [5] = assay: mRNA expression profiling (Illumina microarray); type: cell-based; details: change of expression induced by miRNA overexpression
Experimental: as §2

THRB = assay: mRNA expression profiling (Illumina microarray); type: cell-based; details: change of expression induced by miRNA overexpression
Experimental: as §2

BE(2)-C cells [6] = assay: High-content screen: detection and quantification of neurite outgrowth; type: cell-based; details: 4 days, dose-dependent, vs 0 nM

Question: What does the source list for “hsa-miR-506-3p: miRNA mimic (Dharmacon), mature sequence UAAGGCACCCUUCUGAGUAGA (SEQ ID NO: 1) (UAAGGCACCCUUCUGAGUAGA(1); as printed in the source, key not given here)”?
Answer: Cell viability when reaching plateau (BE(2)-C cells [1]): 6.3±0.3%; Colony formation (BE(2)-C cells [2]): significantly reduce the ability of BE(2)-C to form colonies; Expression of differentiation markers in all the tested cell lines (differentiation markers): dramatically induce expression of differentiation markers; Endogenous STAT3 protein expression level (STAT3 [3]): down-regulate; Target site in the 3′UTR of STAT3 by luciferase reporter (3′UTR of STAT3): validated; Overexpression of the endogenous miRNA in differentiated cells (BE(2)-C cells [4]): 380.1±48.4 fold; Gene expression AHR (AHR): 1.19; Gene expression BDNF (BDNF): 1.04; Gene expression CDK4 (CDK4): 0.39; Gene expression CEBPA (CEBPA): 0.88; Gene expression PML (PML): 1.01; Gene expression RARG (RARG): 1.02; Gene expression RHOQ (RHOQ): 1.07; Gene expression SHC3 (SHC3): 1.08; Gene expression STAT3 (STAT3 [5]): 0.75; Gene expression THRB (THRB): 1.04; Concentration at which induction of neurite outgrowth is significant (BE(2)-C cells [6]): 0.1 nM
